From ChEMBL document CHEMBL5528064, “Invention of MK-7845, a SARS-CoV-2 3CL Protease Inhibitor Employing a Novel Difluorinated Glutamine Mimic” (J Med Chem, 2024)
Activity calls are given as the source filed them. No cut-off for these calls is given here.

Tests used:
[1] = Volume of distribution at steady state in dog by measuring compound and its epimer at 3 mg/kg, po or 1 mg/kg, iv measured upto 24 hrs by LC-MS analysis; format: ADME, organism-based, Canis lupus familiaris; conditions: in vivo
[2] = Apparent permeability in MDCK cells; format: ADME, cell-based, Canis lupus familiaris; conditions: dog
[3] = molecular target: T1, Nuclear receptor subfamily 1 group I member 2 (Homo sapiens, UniProt O75469); assay: Activation of PXR (unknown origin); format: toxicity
T1 sequence (O75469 whole entry): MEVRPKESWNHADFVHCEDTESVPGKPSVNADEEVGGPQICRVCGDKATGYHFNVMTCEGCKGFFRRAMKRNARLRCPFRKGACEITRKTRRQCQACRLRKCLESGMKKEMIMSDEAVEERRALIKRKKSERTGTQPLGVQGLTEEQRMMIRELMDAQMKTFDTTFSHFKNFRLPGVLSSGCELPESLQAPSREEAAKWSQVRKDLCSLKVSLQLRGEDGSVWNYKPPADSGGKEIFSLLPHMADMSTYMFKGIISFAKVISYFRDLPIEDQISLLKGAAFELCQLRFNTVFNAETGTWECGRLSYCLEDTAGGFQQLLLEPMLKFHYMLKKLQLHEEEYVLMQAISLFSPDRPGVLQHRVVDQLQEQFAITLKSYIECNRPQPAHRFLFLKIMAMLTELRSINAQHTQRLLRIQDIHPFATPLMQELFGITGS

SARS-CoV-2 [4] = assay: Antiviral activity against SARS CoV-2 USA-WA1/2020 infected in B6.Cg-Tg(K18-ACE2)2Prlmn/J mouse assessed as log reduction in plaque-forming units in lung at […], po bid measured on day 4 post inoculation; format: functional, Severe acute respiratory syndrome coronavirus 2; conditions: time 4 day
SARS-CoV-2 [5] = assay: Antiviral activity against SARS CoV-2 USA-WA1/2020 infected in po dosed B6.Cg-Tg(K18-ACE2)2Prlmn/J mouse assessed as reduction in viral load in lung administered orally twice daily and measured on day 4 post inoculation; format: functional, organism-based; conditions: Severe acute respiratory syndrome coronavirus 2, dose 100-500 mg/kg, time 4.0 day
[6] = molecular target: T2, PXR (nuclear receptor subfamily 1 group I member 2) (Homo sapiens, UniProt O75469); assay: Activation of PXR (unknown origin) assessed as maximal activation at 30 uM relative to control; format: toxicity; conditions: read-out: Activity
T2 sequence (O75469 whole entry): T1 sequence (O75469 whole entry)

Cytochrome P450 3A4 = Cytochrome P450 3A4 (Homo sapiens, UniProt P08684); assay: Induction of CYP3A4 in human hepatocytes assessed as increase in CYP3A4 mRNA level at 20 uM measured after 48 hrs by PCR analysis relative to control; format: ADME, cell-based, Hepatocyte
Cytochrome P450 3A4, sequence (P08684 whole entry): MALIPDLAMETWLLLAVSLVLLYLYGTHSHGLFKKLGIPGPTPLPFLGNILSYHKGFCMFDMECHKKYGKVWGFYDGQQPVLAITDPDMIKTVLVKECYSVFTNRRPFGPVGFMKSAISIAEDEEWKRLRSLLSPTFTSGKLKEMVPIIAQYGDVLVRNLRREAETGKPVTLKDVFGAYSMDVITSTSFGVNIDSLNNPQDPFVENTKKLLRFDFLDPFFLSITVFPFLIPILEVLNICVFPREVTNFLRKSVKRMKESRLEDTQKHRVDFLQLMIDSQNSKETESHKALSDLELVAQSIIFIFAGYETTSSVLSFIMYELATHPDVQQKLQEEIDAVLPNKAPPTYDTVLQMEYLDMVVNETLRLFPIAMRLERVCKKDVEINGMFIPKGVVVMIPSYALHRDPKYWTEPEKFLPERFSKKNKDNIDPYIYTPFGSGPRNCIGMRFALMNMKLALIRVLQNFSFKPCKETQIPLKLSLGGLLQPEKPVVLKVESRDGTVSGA

[7] = MRT in dog at 3 mg/kg, po or 1 mg/kg, iv measured upto 24 hrs by LC-MS analysis; format: ADME, organism-based, Canis lupus familiaris; conditions: in vivo
Cytochrome P450 1A2 = molecular target: T3, Cytochrome P450 1A2 (Homo sapiens, UniProt P05177); assay: Induction of CYP1A2 in human hepatocytes assessed as increase in CYP1A2 mRNA level at 20 uM measured after 48 hrs by PCR analysis relative to control; format: ADME, cell-based, Hepatocyte
T3 sequence (P05177 whole entry): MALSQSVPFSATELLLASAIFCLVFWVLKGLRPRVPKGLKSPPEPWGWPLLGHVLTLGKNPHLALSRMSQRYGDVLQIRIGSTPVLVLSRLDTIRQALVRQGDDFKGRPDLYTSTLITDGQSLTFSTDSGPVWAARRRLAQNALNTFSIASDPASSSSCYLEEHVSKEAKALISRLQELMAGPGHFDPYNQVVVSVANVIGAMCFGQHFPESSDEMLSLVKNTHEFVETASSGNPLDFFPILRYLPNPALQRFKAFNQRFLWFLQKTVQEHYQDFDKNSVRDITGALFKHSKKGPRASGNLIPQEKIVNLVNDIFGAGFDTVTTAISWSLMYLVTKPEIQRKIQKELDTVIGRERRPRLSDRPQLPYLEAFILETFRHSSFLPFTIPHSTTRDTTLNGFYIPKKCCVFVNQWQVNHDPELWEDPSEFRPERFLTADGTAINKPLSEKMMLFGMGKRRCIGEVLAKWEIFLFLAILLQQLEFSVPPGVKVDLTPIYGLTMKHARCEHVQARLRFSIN

[8] = Plasma protein binding in human assessed as unbound fraction at 1 uM; format: ADME, cell-free
Cytochrome P450 2C9 = Cytochrome P450 2C9 (Homo sapiens, UniProt P11712); assay: Reversible inhibition of CYP2C9 in human liver microsomes using diclofenac as substrate incubated for 5 mins in presence of NADPH-generating system by LC-MS/MS analysis; format: ADME, Microsome
Cytochrome P450 2C9, sequence (P11712 whole entry): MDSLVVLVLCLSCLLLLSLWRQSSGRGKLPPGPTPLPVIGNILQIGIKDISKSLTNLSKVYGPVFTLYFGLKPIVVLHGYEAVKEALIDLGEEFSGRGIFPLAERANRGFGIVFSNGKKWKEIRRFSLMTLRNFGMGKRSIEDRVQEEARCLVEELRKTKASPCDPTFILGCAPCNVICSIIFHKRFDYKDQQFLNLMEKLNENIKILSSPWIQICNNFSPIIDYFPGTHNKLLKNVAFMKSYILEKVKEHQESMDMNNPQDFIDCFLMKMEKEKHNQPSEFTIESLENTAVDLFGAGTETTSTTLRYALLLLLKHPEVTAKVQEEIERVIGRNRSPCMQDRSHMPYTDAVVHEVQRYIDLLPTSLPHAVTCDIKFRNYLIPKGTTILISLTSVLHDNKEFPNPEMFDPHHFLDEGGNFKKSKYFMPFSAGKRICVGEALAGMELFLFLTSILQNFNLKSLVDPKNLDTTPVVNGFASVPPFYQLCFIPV

SARS-CoV-2 [9] = assay: Antiviral activity against SARS CoV-2 USA-WA1/2020 infected in B6.Cg-Tg(K18-ACE2)2Prlmn/J mouse assessed as protection against body weight loss at 100 to 500 mg/kg, po bid measured daily for 4 days post inoculation; format: functional, organism-based; conditions: Severe acute respiratory syndrome coronavirus 2, dose 100-500 mg/kg, time 4.0 day
SARS-CoV-2 [10] = assay: Antiviral activity against ancestral SARS-CoV-2 WA1/2020 infected in human A549-hACE2-TMPRSS2 cells assessed as inhibition of virus induced cytopathic effect incubated for 72 hrs by celltiter glo assay; format: functional, organism-based; conditions: Severe acute respiratory syndrome coronavirus 2, WA1/2020, A549-hACE2-TMPRSS2, 72 h
[11] = Plasma stability in human assessed as epimerization at 1 uM measured upto 3 hrs by LC-MS/MS analysis; format: ADME, cell-free
Cytochrome P450 2C19 = Cytochrome P450 2C19 (Homo sapiens, UniProt P33261); assay: Reversible inhibition of CYP2C19 in human liver microsomes using S-mephenytoin as substrate incubated for 5 mins in presence of NADPH-generating system by LC-MS/MS analysis; format: ADME, Microsome
Cytochrome P450 2C19, sequence (P33261 whole entry): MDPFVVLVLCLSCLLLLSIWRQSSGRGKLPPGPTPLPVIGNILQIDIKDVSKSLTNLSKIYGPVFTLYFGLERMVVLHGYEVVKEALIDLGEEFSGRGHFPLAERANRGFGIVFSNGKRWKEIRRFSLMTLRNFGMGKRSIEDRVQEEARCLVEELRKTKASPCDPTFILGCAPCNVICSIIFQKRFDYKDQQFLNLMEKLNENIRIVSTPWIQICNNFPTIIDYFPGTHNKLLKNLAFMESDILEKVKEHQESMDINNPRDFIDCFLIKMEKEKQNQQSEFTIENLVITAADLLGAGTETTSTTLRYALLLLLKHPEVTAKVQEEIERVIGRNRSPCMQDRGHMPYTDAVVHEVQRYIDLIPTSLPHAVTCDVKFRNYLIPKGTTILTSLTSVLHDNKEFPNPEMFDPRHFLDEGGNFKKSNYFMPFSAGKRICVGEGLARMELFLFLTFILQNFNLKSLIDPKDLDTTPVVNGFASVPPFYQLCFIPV

[12] = Plasma protein binding in rat assessed as free fraction at 1 uM; format: ADME, cell-free
Cytochrome P450 2B6 = molecular target: T4, Cytochrome P450 2B6 (Homo sapiens, UniProt P20813); assay: Induction of CYP2B6 in human hepatocytes assessed as increase in CYP2B6 mRNA level at 20 uM measured after 48 hrs by PCR analysis relative to control; format: ADME, cell-based, Hepatocyte
T4 sequence (P20813 whole entry): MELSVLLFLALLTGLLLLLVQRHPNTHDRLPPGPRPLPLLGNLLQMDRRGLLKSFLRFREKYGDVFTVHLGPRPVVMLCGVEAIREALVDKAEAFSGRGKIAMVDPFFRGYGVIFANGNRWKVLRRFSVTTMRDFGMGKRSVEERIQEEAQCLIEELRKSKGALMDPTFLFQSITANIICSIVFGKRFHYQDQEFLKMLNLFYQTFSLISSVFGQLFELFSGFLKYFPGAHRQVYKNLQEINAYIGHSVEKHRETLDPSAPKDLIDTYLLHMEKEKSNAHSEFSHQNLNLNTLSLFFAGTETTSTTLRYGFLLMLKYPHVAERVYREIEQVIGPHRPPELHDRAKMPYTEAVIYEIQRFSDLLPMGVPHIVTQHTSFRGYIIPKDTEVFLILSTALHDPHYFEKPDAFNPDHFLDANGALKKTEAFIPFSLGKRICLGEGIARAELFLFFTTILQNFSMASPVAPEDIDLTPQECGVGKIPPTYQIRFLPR

[13] = Oral bioavailability in rat at 3 mg/kg measured upto 24 hrs by LC-MS analysis; format: ADME, organism-based; conditions: in vivo

CNC(=O)C(=O)[C@H](CCC(C)(F)F)NC(=O)[C@@H]1[C@H]2CCC[C@H]2CN1C(=O)[C@@H](NC(=O)OC)C(C)(C)C
Vdss [1]: 0.4 L/kg
Papp [2]: 5.7 ×10⁻⁶ cm/s
EC50 [3]: > 30 µM
log(activity) (SARS-CoV-2 [4]): 1.7
Activity (SARS-CoV-2 [5]): Dose-Dependent Effect
Emax at 30 µM [6]: 29%
Activity (Cytochrome P450 3A4): 22%
MRT [7]: 2.5 h
Activity (Cytochrome P450 1A2): < 1%
fraction unbound at 1 µM [8]: 0.27
IC50 (Cytochrome P450 2C9): > 200 µM
Activity (SARS-CoV-2 [9]): Active
IC50 (SARS-CoV-2 [10]): 0.444 µM
Stability [11]: Unstable
IC50 (Cytochrome P450 2C19): > 200 µM
fraction unbound at 1 µM [12]: 0.1
Activity (Cytochrome P450 2B6): 7%
bioavailability [13]: 65%
